Patent US12312343B2, “Rotomeric isomers of 4-alkyl-5-heteroaryl-3H-1,2-dithiole-3-thiones” (ST IP HOLDING AG, priority 2018, dated 2025)

What was measured:
[1] = test system: SOD1; experiment: Human oxidative stress RT2 Profiler PCR array in HGEPp cells: SOD1; type: cell-based; settings: 100 μg/ml, 24 h, RT-PCR ΔΔCt
Description: (§1) RT-PCR was performed on an iCycler.

[2] = test system: GCLM; experiment: Human oxidative stress RT2 Profiler PCR array in HGEPp cells: GCLM; type: cell-based; settings: 100 μg/ml, 24 h, RT-PCR ΔΔCt
Description: as §1

[3] = test system: HGEPp cells; experiment: ROS production in H2O2-induced oxidatively stressed HGEPp cells; settings: HGEPp cells pretreated 24 hrs at 100 μg/mL, then 0.3 mM H2O2 for 4 h; positive control 139%
[4] = test system: GSTP1; experiment: Human oxidative stress RT2 Profiler PCR array in HGEPp cells: GSTP1; type: cell-based; settings: 100 μg/ml, 24 h, RT-PCR ΔΔCt
Description: as §1

[5] = test system: PTGS1; experiment: Human oxidative stress RT2 Profiler PCR array in HGEPp cells: PTGS1; type: cell-based; settings: 100 μg/ml, 24 h, RT-PCR ΔΔCt
Description: as §1

[6] = test system: GCLC; experiment: Human oxidative stress RT2 Profiler PCR array in HGEPp cells: GCLC; type: cell-based; settings: 100 μg/ml, 24 h, RT-PCR ΔΔCt
Description: as §1

[7] = test system: UCP2; experiment: Human oxidative stress RT2 Profiler PCR array in HGEPp cells: UCP2; type: cell-based; settings: 100 μg/ml, 24 h, RT-PCR ΔΔCt
Description: as §1

[8] = test system: GPX4; experiment: Human oxidative stress RT2 Profiler PCR array in HGEPp cells: GPX4; settings: 100 μg/ml, 24 h, RT-PCR ΔΔCt
Description: (§2) Pooled primary HGEPp cells were propagated in CnT-Prime epithelial culture medium provided by CellnTec on 100 mm petri dishes coated with 30 mg/ml Type I rat tail collagen (BD Biosciences) diluted in Dulbecco's phosphate-buffered saline (DPBS). HGEPp cells were grown in 12×60 mm Nunc™ Cell Culture dishes at a 2.5×10^4 cells/cm2 density concentration.
(§3) All dosing solutions contained 0.3% of DMSO which is well below the maximum tolerated DMSO percent of 0.8% for HGEPp cells.
(§4) The cDNA from above was mixed with the RT2 SYBR Green fluor Mastermix and aliquoted into the wells of the RT2 Profiler PCR Array. RT-PCR was performed on an iCycler. Gene expression was compared using Ct values and the results were calculated using ΔΔ Ct method with normalization to the average expression levels of the five common genes (ACTB, B2M, GAPDH, HPRT, and RPL13A).

[9] = test system: GTF2i; experiment: Human oxidative stress RT2 Profiler PCR array in HGEPp cells: GTF2i; type: cell-based; settings: 100 μg/ml, 24 h, RT-PCR ΔΔCt
Description: as §1

[10] = test system: ALOX12; experiment: Human oxidative stress RT2 Profiler PCR array in HGEPp cells: ALOX12; type: cell-based; settings: 100 μg/ml, 24 h, RT-PCR ΔΔCt
Description: as §1

[11] = test system: NQO1; experiment: Human oxidative stress RT2 Profiler PCR array in HGEPp cells: NQO1; type: cell-based; settings: 100 μg/ml, 24 h, RT-PCR ΔΔCt
Description: as §1

[12] = test system: MPO; experiment: Human oxidative stress RT2 Profiler PCR array in HGEPp cells: MPO; settings: 100 μg/ml, 24 h, RT-PCR ΔΔCt
Description: as §2, §3, §4

[13] = test system: PRDX2; experiment: Human oxidative stress RT2 Profiler PCR array in HGEPp cells: PRDX2; settings: 100 μg/ml, 24 h, RT-PCR ΔΔCt
Description: as §2, §3, §4

[14] = test system: GPX1; experiment: Human oxidative stress RT2 Profiler PCR array in HGEPp cells: GPX1; type: cell-based; settings: 100 μg/ml, 24 h, RT-PCR ΔΔCt
Description: as §1

| Compound | SOD1 up regulation relative fold change [1] | GCLM up regulation relative fold change [2] | ROS level (optical density, Normal = 100% baseline) [3] [%] | GSTP1 up regulation relative fold change [4] | PTGS1 down regulation relative fold change [5] [fold] | GCLC up regulation relative fold change [6] | UCP2 down regulation relative fold change [7] [fold] | GPX4 up regulation relative fold change [8] [fold] | GTF2i down regulation relative fold change [9] [fold] | ALOX12 up regulation relative fold change [10] [fold] | NQO1 up regulation relative fold change [11] | MPO up regulation relative fold change [12] [fold] | PRDX2 down regulation relative fold change [13] [fold] | GPX1 up regulation relative fold change [14] [fold] | also measured |
| --- | --- | --- | --- | --- | --- | --- | --- | --- | --- | --- | --- | --- | --- | --- | --- |
| Cc1c(-c2cnccn2)ssc1=S.Cl [Example 1, hydrochloride complex of oltipraz] | 3.86 fold | 2.33 fold | 128 | 2.77 fold | 0.28 | 3.35 fold | 0.26 | 2.86 | 0.33 | 6.38 | 3.14 fold | 3.22 | 0.31 | 4.81 | – |
| Cc1c(-c2cncc[n+]2OC2=CC(=O)OC2=O)ssc1=S [Example 2, hydroxymaleate anhydride complex of oltipraz] | 5.13 fold | 3.01 fold | 116 | 3.07 fold | 0.23 | 4.52 fold | 0.15 | 2.84 | 0.26 | 6.46 | 4.07 fold | 3.21 | 0.26 | 4.8 | – |
| Cc1c(-c2cnccn2)ssc1=S.O=S(=O)(O)CCO [Example 10, isethionic acid complex of oltipraz] | significantly higher up-regulation | significantly higher up-regulation | 113 | significantly higher up-regulation | 0.22 | significantly higher up-regulation | 0.16 | 2.79 | 0.31 | 6.48 | significantly higher up-regulation | 3.39 | 0.28 | 4.86 | SOD1 up regulation relative fold change ([1]; listed as Ex. 10): 5.23 fold; GCLM up regulation relative fold change ([2]; listed as Ex. 10): 3.11 fold; GSTP1 up regulation relative fold change ([4]; listed as Ex. 10): 3.18 fold; GCLC up regulation relative fold change ([6]; listed as Ex. 10): 4.52 fold; NQO1 up regulation relative fold change ([11]; listed as Ex. 10): 4.26 fold |
| Diethyl Thiophosphate Complex of Oltipraz [Example 8] | 4.86 fold | 3.02 fold | 115 | 3.08 fold | 0.23 | 4.39 fold | 0.14 | 3.02 | 0.29 | 6.41 | 3.92 fold | 3.47 | 0.28 | 4.81 | – |
| acetyl chloride complex of oltipraz [Example 3] | 4.24 fold | 2.38 fold | 129 | 2.87 fold | 0.29 | 3.27 fold | 0.26 | 2.83 | 0.32 | 6.33 | 3.36 fold | 3.10 | 0.33 | 4.76 | – |
| benzoyl chloride complex of oltipraz [Example 6] | 3.92 fold | 2.25 fold | 131 | 2.74 fold | 0.28 | 3.31 fold | 0.28 | 2.91 | 0.36 | 5.93 | 3.17 fold | 3.05 | 0.31 | 4.43 | – |
| diethyl dithiophosphate complex of oltipraz [Example 7] | 4.85 fold | 3.00 fold | 117 | 3.13 fold | 0.21 | 4.41 fold | 0.17 | 2.99 | 0.29 | 6.38 | 3.93 fold | 3.42 | 0.28 | 4.72 | – |
| dimethyl phosphate complex of N-methyl oltipraz [Example 9] | significantly higher up-regulation | significantly higher up-regulation | 112 | significantly higher up-regulation | 0.21 | significantly higher up-regulation | 0.15 | 2.93 | 0.28 | 6.43 | significantly higher up-regulation | 3.41 | 0.27 | 4.89 | SOD1 up regulation relative fold change ([1]; listed as Ex. 9): 5.22 fold; GCLM up regulation relative fold change ([2]; listed as Ex. 9): 3.15 fold; GSTP1 up regulation relative fold change ([4]; listed as Ex. 9): 3.16 fold; GCLC up regulation relative fold change ([6]; listed as Ex. 9): 4.60 fold; NQO1 up regulation relative fold change ([11]; listed as Ex. 9): 4.24 fold |
